From patent US11512080B2, “CRBN ligands and uses thereof” (Kymera Therapeutics, Inc., priority 2018, dated 2022)

Biological target: His-tagged CRBN-DDB1 complex (Homo sapiens (Human), UniProt Q96SW2)
Test: Time-Resolved Fluorescence Resonance Energy Transfer (TR-FRET) assay
Format: binding
Details: competition with Cy5-labeled thalidomide (8 nM), 1 hour at room temperature; read-out: CRBN HTRF IC50
Description: The mixture were incubated at room temperature for 1 hour. […] Quantitative loss of FRET efficiency as a function of compound concentrations was fitted by a four-parameter Logistic Function using GraphPad Prism 7.0 and the IC50 values were reported for each compound.
The compound numbers correspond to the compound numbers in Table 1.

Sequence of His-tagged CRBN-DDB1 complex (Q96SW2 whole entry): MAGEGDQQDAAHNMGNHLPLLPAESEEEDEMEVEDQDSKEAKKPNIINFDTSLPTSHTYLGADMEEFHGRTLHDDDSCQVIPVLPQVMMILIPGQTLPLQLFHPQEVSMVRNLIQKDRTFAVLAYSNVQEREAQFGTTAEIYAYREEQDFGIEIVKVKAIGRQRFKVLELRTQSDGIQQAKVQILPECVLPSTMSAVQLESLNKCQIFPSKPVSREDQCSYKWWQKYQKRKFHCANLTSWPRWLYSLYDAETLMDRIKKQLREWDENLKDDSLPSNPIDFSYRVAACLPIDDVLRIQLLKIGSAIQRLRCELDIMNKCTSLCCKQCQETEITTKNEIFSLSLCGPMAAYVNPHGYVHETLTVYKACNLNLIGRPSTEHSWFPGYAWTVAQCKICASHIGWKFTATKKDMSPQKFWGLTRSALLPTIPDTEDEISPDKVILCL
Sequence of His-tagged CRBN-DDB1 complex (Q16531 whole entry partner): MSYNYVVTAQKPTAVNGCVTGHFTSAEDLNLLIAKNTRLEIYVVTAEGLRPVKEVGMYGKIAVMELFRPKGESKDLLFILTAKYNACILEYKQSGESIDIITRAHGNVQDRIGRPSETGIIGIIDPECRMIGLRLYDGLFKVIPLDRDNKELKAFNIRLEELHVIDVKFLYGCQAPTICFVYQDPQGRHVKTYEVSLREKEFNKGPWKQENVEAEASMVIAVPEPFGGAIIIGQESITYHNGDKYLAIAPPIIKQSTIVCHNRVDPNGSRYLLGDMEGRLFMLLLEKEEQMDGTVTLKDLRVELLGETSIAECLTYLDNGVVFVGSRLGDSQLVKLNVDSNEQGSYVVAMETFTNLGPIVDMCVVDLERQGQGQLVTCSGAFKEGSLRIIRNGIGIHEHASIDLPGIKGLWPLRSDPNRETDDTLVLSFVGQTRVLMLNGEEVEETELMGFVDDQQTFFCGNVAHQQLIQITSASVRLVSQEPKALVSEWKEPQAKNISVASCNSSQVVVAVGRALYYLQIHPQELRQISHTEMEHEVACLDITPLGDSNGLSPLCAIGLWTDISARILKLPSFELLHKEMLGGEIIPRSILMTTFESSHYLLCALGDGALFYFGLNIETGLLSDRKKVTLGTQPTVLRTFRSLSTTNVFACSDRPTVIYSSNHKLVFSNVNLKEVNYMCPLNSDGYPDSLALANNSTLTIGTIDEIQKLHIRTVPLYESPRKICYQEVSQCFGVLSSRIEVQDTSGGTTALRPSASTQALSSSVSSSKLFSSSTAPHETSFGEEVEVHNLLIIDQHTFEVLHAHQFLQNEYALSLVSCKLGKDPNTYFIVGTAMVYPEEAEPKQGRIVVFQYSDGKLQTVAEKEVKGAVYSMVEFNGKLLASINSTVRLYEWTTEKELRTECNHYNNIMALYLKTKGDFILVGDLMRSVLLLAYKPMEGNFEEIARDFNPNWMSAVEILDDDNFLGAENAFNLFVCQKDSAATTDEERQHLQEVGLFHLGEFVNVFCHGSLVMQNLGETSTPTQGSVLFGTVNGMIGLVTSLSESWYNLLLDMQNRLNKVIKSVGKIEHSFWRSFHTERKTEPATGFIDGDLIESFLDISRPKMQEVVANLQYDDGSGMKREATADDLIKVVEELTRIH

`CN1Cc2ccccc2C(N2CCC(=O)NC2=O)C1=O` (stereo not drawn) [Compound I-145, 1-(2-Methyl-3-oxo-1,2,3,4-tetrahydroisoquinolin-4-yl)dihydropyrimidine-2,4(1H,3H)-dione] and `Cn1c(=O)c(N2CCC(=O)NC2=O)cc2ccccc21` [Compound I-144, 1-(1-Methyl-2-oxo-1,2-dihydroquinolin-3-yl)dihydropyrimidine-2,4(1H,3H)-dione] cannot be ordered by IC50: > 100 µM for the first, > 100 µM for the second.

`Cn1nc(C2SC(=N)NC2=O)c2ccccc21` (stereo not drawn) [Compound I-81, 2-Imino-5-(1-methyl-1H-indazol-3-yl)thiazolidin-4-one] and `Cn1cc(C2SC(=O)NC2=O)c2ccccc21` (stereo not drawn) [Compound I-71, 5-(1-Methyl-1H-indol-3-yl)thiazolidine-2,4-dione] cannot be ordered by IC50: > 100 µM for the first, > 100 µM for the second.

`O=C1CCC(SC2CCCCC2)C(=O)N1` (stereo not drawn) [Compound I-116] and `Cn1ccnc1SC1CCC(=O)NC1=O` (stereo not drawn) [Compound I-73] cannot be ordered by IC50: > 100 µM for the first, > 100 µM for the second.

`O=C1CN(C2SC(=O)NC2=O)CCN1` (stereo not drawn) [Compound I-77, 5-(3-Oxopiperazin-1-yl)thiazolidine-2,4-dione] and `O=C1NC(=O)C(N2CCN(c3ccccc3)CC2=O)S1` (stereo not drawn) [Compound I-82, 5-(2-Oxo-4-phenylpiperazin-1-yl)thiazolidine-2,4-dione] cannot be ordered by IC50: > 100 µM for the first, > 100 µM for the second.

`O=c1ccn(-c2ccccn2)c(=O)[nH]1` [Compound I-28, 1-(pyridin-2-yl)pyrimidine-2,4(1H,3H)-dione] and `Cn1c(=O)n(C2SC(=O)NC2=O)c2ccccc21` (stereo not drawn) [Compound I-39] cannot be ordered by IC50: > 100 µM for the first, > 100 µM for the second.

`Cn1cc2ccccc2c(N2CCC(=O)NC2=O)c1=O` [Compound I-146, 1-(2-Methyl-3-oxo-2,3-dihydroisoquinolin-4-yl)dihydropyrimidine-2,4(1H,3H)-dione] and `Cn1cccc(N2CCC(=O)NC2=O)c1=O` [Compound I-143] cannot be ordered by IC50: > 100 µM for the first, > 100 µM for the second.

Same assay, conditions: read-out: CRBN HTRF IC50

First: O=C1CCC(Sc2cc(Cl)ccc2Cl)C(=O)N1 (stereo not drawn) [Compound I-101]
Second: O=C1CCC(Sc2cc(Cl)c(Cl)cc2Cl)C(=O)N1 (stereo not drawn) [Compound I-102]
The IC50 of the first is lower: 1 to 10 µM for the first, 10 to 100 µM for the second. The first is the more potent here.

`Cc1coc(-c2ccnc(SC3CCC(=O)NC3=O)c2)n1` (stereo not drawn) [Compound I-138, 3-((4-(4-Methyloxazol-2-yl)pyridin-2-yl)thio)piperidine-2,6-dione] and `O=C1CCC(Sc2cc(-c3nn[nH]n3)ccn2)C(=O)N1` (stereo not drawn) [Compound I-139, 3-((4-(2H-Tetrazol-5-yl)pyridin-2-yl)thio)piperidine-2,6-dione] fall in the same range of IC50: 1 to 10 µM for the first, 1 to 10 µM for the second.

First: O=C1CCC(Sc2cccc3cccnc23)C(=O)N1 (stereo not drawn) [Compound I-97]
Second: O=C1CCC(Oc2cccc3cccnc23)C(=O)N1 (stereo not drawn) [Compound I-129]
The IC50 of the first is lower: 1 to 10 µM for the first, 10 to 100 µM for the second. The first is the more potent here.

Compared with `Cc1c(SC2CCC(=O)NC2=O)cccc1C(=O)O` (stereo not drawn) [Compound I-137, 3-((2,6-Dioxopiperidin-3-yl)thio)-2-methylbenzoic acid], `O=C1CCC(Sc2cccc(C(=O)O)n2)C(=O)N1` (stereo not drawn) [Compound I-136] is lower in IC50: 10 to 100 µM for the first, 1 to 10 µM for the second. The second is the more potent here.

First: COc1cccc(SC2CCC(=O)NC2=O)c1 (stereo not drawn) [Compound I-87]
Second: Cc1cccc(SC2CCC(=O)NC2=O)c1 (stereo not drawn) [Compound I-69]
The IC50 of the first is lower: 1 to 10 µM for the first, 10 to 100 µM for the second. The first is the more potent here.

`O=C1CCC(Sc2cc(C(F)(F)F)cc(C(F)(F)F)c2)C(=O)N1` (stereo not drawn) [Compound I-92] and `O=C1CCC(Sc2ccc(C(F)(F)F)cc2)C(=O)N1` (stereo not drawn) [Compound I-16, 3-((4-(trifluoromethyl)phenyl)thio)piperidine-2,6-dione] fall in the same range of IC50: 10 to 100 µM for the first, 10 to 100 µM for the second.

Compared with `O=C1CCC(Oc2ccccc2)C(=O)N1` (stereo not drawn) [Compound I-103], `O=C1CCC(Oc2ccc3ccccc3c2)C(=O)N1` (stereo not drawn) [Compound I-119] is lower in IC50: 10 to 100 µM for the first, 1 to 10 µM for the second. The second is the more potent here.

`O=C1CCC(Sc2nc3ccccc3n2C2CC2)C(=O)N1` (stereo not drawn) [Compound I-70, 3-((1-Cyclopropyl-1H-benzo[d]imidazol-2-yl)thio)piperidine-2,6-dione] and `Cn1c(SC2CCC(=O)NC2=O)nc2ccccc21` (stereo not drawn) [Compound I-12, 3-(1-Methyl-1H-benzoimidazol-2-ylsulfanyl)-piperidine-2,6-dione] fall in the same range of IC50: 10 to 100 µM for the first, 10 to 100 µM for the second.

First: CN(C)c1ccc(SC2CCC(=O)NC2=O)cc1 (stereo not drawn) [Compound I-85]
Second: Cc1ccc(SC2CCC(=O)NC2=O)cc1 (stereo not drawn) [Compound I-66]
The IC50 of the first is lower: 1 to 10 µM for the first, 10 to 100 µM for the second. The first is the more potent here.

`CC(C)(C)c1ccc(OC2CCC(=O)NC2=O)cc1` (stereo not drawn) [Compound I-115] and `CN(C)c1ccc(OC2CCC(=O)NC2=O)cc1` (stereo not drawn) [Compound I-125] fall in the same range of IC50: 1 to 10 µM for the first, 1 to 10 µM for the second.

First: O=C1CCC(Sc2ccc(Br)cn2)C(=O)N1 (stereo not drawn) [Compound I-104]
Second: O=C1CCC(Sc2ccc(C(=O)O)cn2)C(=O)N1 (stereo not drawn) [Compound I-133, 6-((2,6-Dioxopiperidin-3-yl)thio)nicotinic Acid]
The IC50 of the first is lower: 1 to 10 µM for the first, 10 to 100 µM for the second.

First: CC(C)(C)n1c(SC2CCC(=O)NC2=O)nc2ccccc21 (stereo not drawn) [Compound I-63, 3-((1-(tert-Butyl)-1H-benzo[d]imidazol-2-yl)thio)piperidine-2,6-dione]
Second: CCn1c(SC2CCC(=O)NC2=O)nc2ccccc21 (stereo not drawn) [Compound I-11, 3-((1-ethyl-1H-benzo[d]imidazol-2-yl)thio)piperidine-2,6-dione]
The IC50 of the first is higher: 10 to 100 µM for the first, 1 to 10 µM for the second.

`O=C1CCC(Sc2cccc(C(=O)O)c2)C(=O)N1` (stereo not drawn) [Compound I-123] and `O=C1CCC(Sc2ccc(C(=O)O)cc2)C(=O)N1` (stereo not drawn) [Compound I-10, 4-((2,6-dioxopiperidin-3-yl)thio)benzoic acid] fall in the same range of IC50: 10 to 100 µM for the first, 10 to 100 µM for the second.

`O=C1CCC(Sc2cccs2)C(=O)N1` (stereo not drawn) [Compound I-72] and `O=C1CCC(Sc2ccccc2)C(=O)N1` (stereo not drawn) [Compound I-4, 3-(phenylthio)piperidine-2,6-dione] fall in the same range of IC50: 10 to 100 µM for the first, 10 to 100 µM for the second.

First: O=C1CCC(Sc2cc(C(=O)O)ccn2)C(=O)N1 (stereo not drawn) [Compound I-111]
Second: CNC(=O)c1ccnc(SC2CCC(=O)NC2=O)c1 (stereo not drawn) [Compound I-131, 2-((2,6-Dioxopiperidin-3-yl)thio)-N-methylisonicotinamide]
The IC50 of the first is lower: 1 to 10 µM for the first, 10 to 100 µM for the second.

Compared with `COc1ccccc1SC1CCC(=O)NC1=O` (stereo not drawn) [Compound I-75], `O=C1CCC(Sc2ccccc2OC(F)(F)F)C(=O)N1` (stereo not drawn) [Compound I-99] is lower in IC50: 10 to 100 µM for the first, 1 to 10 µM for the second. The second is the more potent here.

`O=C1CCC(Sc2ccc(F)c(F)c2)C(=O)N1` (stereo not drawn) [Compound I-114] and `O=C1CCC(Sc2ccc(Cl)cc2)C(=O)N1` (stereo not drawn) [Compound I-15, 3-((4-chlorophenyl)thio)piperidine-2,6-dione] fall in the same range of IC50: 10 to 100 µM for the first, 10 to 100 µM for the second.

First: CCc1ccc(S(=O)(=O)C2CCC(=O)NC2=O)cc1 (stereo not drawn) [Compound I-65, 3-((4-ethylphenyl)sulfonyl)piperidine-2,6-dione]
Second: CCc1ccc(SC2CCC(=O)NC2=O)cc1 (stereo not drawn) [Compound I-17, 3-((4-ethylphenyl)thio)piperidine-2,6-dione]
The IC50 of the first is higher: 10 to 100 µM for the first, 1 to 10 µM for the second.

Compared with `COCCOCCNC(=O)c1cccnc1SC1CCC(=O)NC1=O` (stereo not drawn) [Compound I-142], `CN(C)C(=O)c1cccnc1SC1CCC(=O)NC1=O` (stereo not drawn) [Compound I-141] is higher in IC50: 1 to 10 µM for the first, 10 to 100 µM for the second. The first is the more potent here.

`O=C1CCC(Sc2ccc(CO)cc2)C(=O)N1` (stereo not drawn) [Compound I-112] and `O=C1CCC(Sc2ccc(F)cc2)C(=O)N1` (stereo not drawn) [Compound I-7] fall in the same range of IC50: 10 to 100 µM for the first, 10 to 100 µM for the second.

`O=C1CCC(Sc2ccccn2)C(=O)N1` (stereo not drawn) [Compound I-6, 3-(pyridin-2-ylthio)piperidine-2,6-dione] and `O=C1CCC(Sc2ncccn2)C(=O)N1` (stereo not drawn) [Compound I-83] fall in the same range of IC50: 10 to 100 µM for the first, 10 to 100 µM for the second.

First: CN(C)C(=O)c1ccnc(SC2CCC(=O)NC2=O)c1 (stereo not drawn) [Compound I-132, 2-((2,6-Dioxopiperidin-3-yl)thio)-N,N-dimethylisonicotinamide]
Second: O=C1CCC(Sc2ncccc2C(=O)O)C(=O)N1 (stereo not drawn) [Compound I-126]
The IC50 of the first is higher: 10 to 100 µM for the first, 1 to 10 µM for the second.

`Cc1occc1SC1CCC(=O)NC1=O` (stereo not drawn) [Compound I-80] and `N#Cc1ccccc1SC1CCC(=O)NC1=O` (stereo not drawn) [Compound I-117] fall in the same range of IC50: 10 to 100 µM for the first, 10 to 100 µM for the second.

First: NC(=O)c1cccnc1SC1CCC(=O)NC1=O (stereo not drawn) [Compound I-140, 2-((2,6-Dioxopiperidin-3-yl)thio)nicotinamide]
Second: O=C1CCC(Sc2ccncc2)C(=O)N1 (stereo not drawn) [Compound I-62]
The IC50 of the first is lower: 1 to 10 µM for the first, 10 to 100 µM for the second. The first is the more potent here.

First: CCc1ccc([S+]([O-])C2CCC(=O)NC2=O)cc1 (stereo not drawn) [Compound I-64, 3-((4-ethylphenyl)sulfinyl)piperidine-2,6-dione]
Second: CCc1ccc(OC2CCC(=O)NC2=O)cc1 (stereo not drawn) [Compound I-78, 3-(4-ethylphenoxy)piperidine-2,6-dione]
The IC50 of the first is higher: 10 to 100 µM for the first, 1 to 10 µM for the second. The second is the more potent here.

`O=C1CCC(Sc2ccc(C(F)(F)F)cn2)C(=O)N1` (stereo not drawn) [Compound I-98] and `Nc1cc(C(F)(F)F)ccc1SC1CCC(=O)NC1=O` (stereo not drawn) [Compound I-120] fall in the same range of IC50: 10 to 100 µM for the first, 10 to 100 µM for the second.

`CN1CCN(c2ccc(OC3CCC(=O)NC3=O)cc2)CC1` (stereo not drawn) [Compound I-128] and `N#Cc1ccc(SC2CCC(=O)NC2=O)cc1` (stereo not drawn) [Compound I-67, 4-((2,6-Dioxopiperidin-3-yl)thio)benzonitrile] fall in the same range of IC50: 10 to 100 µM for the first, 10 to 100 µM for the second.

Compared with `N#Cc1cccc(SC2CCC(=O)NC2=O)c1` (stereo not drawn) [Compound I-134], `CCc1cccc(SC2CCC(=O)NC2=O)c1` (stereo not drawn) [Compound I-121, 3-((3-ethylphenyl)thio)piperidine-2,6-dione] is lower in IC50: 10 to 100 µM for the first, 1 to 10 µM for the second.

`Nc1cc(=O)nc(SC2CCC(=O)NC2=O)[nH]1` (stereo not drawn) [Compound I-113] and `Cc1cc(C)nc(SC2CCC(=O)NC2=O)n1` (stereo not drawn) [Compound I-89] fall in the same range of IC50: 10 to 100 µM for the first, 10 to 100 µM for the second.

`O=C1NC(=O)C(N2CC(c3ccccc3)OC2=O)S1` (stereo not drawn) [Compound I-38] and `Cn1nc(N2CCC(=O)NC2=O)cc1-c1ccccc1` [Compound I-88, 1-(1-Methyl-5-phenyl-1H-pyrazol-3-yl)dihydropyrimidine-2,4(1H,3H)-dione] fall in the same range of IC50: 10 to 100 µM for the first, 10 to 100 µM for the second.

`CC(=O)Nc1ccc(SC2CCC(=O)NC2=O)cc1` (stereo not drawn) [Compound I-13, N-[4-(2,6-Dioxo-piperidin-3-ylsulfanyl)-phenyl]-acetamide] and `Cn1ccc(CN2CCC(=O)NC2=O)n1` [Compound I-106] fall in the same range of IC50: 10 to 100 µM for the first, 10 to 100 µM for the second.

Molecule `O=c1ccn(-c2ccccc2)c(=O)[nH]1` [Compound I-27, 1-phenylpyrimidine-2,4(1H,3H)-dione] has an IC50 of 10 to 100 µM.
